The values that follow are results of earlier work, collected in patent publication US9849145B2, “Pharmaceutical composition containing honeysuckle extract and antibiotics, pharmaceutical kit, and use of honeysuckle extract for preparation of drug” (priority 2011, dated 2017).

Common to all, as to parameters: key: Resistant; Sensitive; Intermediate degree (moderate resistance)
The test system of series [1] is Klebsiella pneumoniae. The following applies: clinical isolate, specimen 31853, urine; cited from earlier work.
Another series deals with Escherichia coli. The settings on record: clinical isolate, specimen 32042, urine; cited from earlier work.
For the next series, the system named is Pseudomona aeruginosa. The settings on record: clinical isolate, specimen 12; cited from earlier work.
Series [2] relates to Klebsiella pneumoniae. The settings on record: clinical isolate, specimen 31494, sputum; cited from earlier work.
The subject of the next series is Staphylococcus aureus. The settings on record: clinical isolate, specimen Y31692, secretion; cited from earlier work.

On to `CO/N=C(\C(=O)N[C@@H]1C(=O)N2C(C(=O)O)=C(CSc3nc(=O)c(=O)[nH]n3C)CS[C@H]12)c1csc(N)n1` [CRO, ceftriaxone], for which, in the series on Klebsiella pneumoniae [1], the “resistance of Klebsiella pneumoniae to the antibiotic” value (shortened to “resistance of Klebsiella pneumoniae”) is given as “S”. In addition, the “resistance of Escherichia coli to the antibiotic” value (“resistance of Escherichia coli” below) with Escherichia coli is given as “R”. Further, the “resistance of Pseudomona aeruginosa to the antibiotic” value (“resistance of Pseudomona aeruginosa” for short) in the series on Pseudomona aeruginosa is “R”. For the same molecule, the “drug resistant spectrum of the experimental strain of Klebsiella pneumoniae” value (from here on “drug resistant spectrum”) in the series with Klebsiella pneumoniae [2] is “R”.
Take penicillin [PNE]: the “resistance of Staphylococcus aureus to the antibiotic” value (“resistance of Staphylococcus aureus” for short) in the series on Staphylococcus aureus is “R”.
As for `CN[C@H](CC(C)C)C(=O)N[C@H]1C(=O)N[C@@H](CC(N)=O)C(=O)N[C@H]2C(=O)N[C@H]3C(=O)N[C@H](C(=O)N[C@H](C(=O)O)c4cc(O)cc(O)c4-c4cc3ccc4O)[C@H](O)c3ccc(c(Cl)c3)Oc3cc2cc(c3O[C@@H]2O[C@H](CO)[C@@H](O)[C@H](O)[C@H]2O[C@H]2C[C@](C)(N)[C@H](O)[C@H](C)O2)Oc2ccc(cc2Cl)[C@H]1O` [VAN, vancomycin], in the series on Staphylococcus aureus, the “resistance of Staphylococcus aureus” value was “S”.
Consider `CC[C@H]1OC(=O)[C@H](C)[C@@H](O[C@H]2C[C@@](C)(OC)[C@@H](O)[C@H](C)O2)[C@H](C)[C@@H](O[C@@H]2O[C@H](C)C[C@H](N(C)C)[C@H]2O)[C@](C)(O)C[C@@H](C)C(=O)[C@H](C)[C@@H](O)[C@]1(C)O` [ERY, erythromycin], for which, in the series with Staphylococcus aureus, the “resistance of Staphylococcus aureus” value is given as “R”.
Turning to `CO[C@H]1/C=C/O[C@@]2(C)Oc3c(C)c(O)c4c(O)c(c(/C=N/N5CCN(C)CC5)c(O)c4c3C2=O)NC(=O)/C(C)=C\C=C\[C@H](C)[C@H](O)[C@@H](C)[C@@H](O)[C@@H](C)[C@H](OC(C)=O)[C@@H]1C` [RIF, rifampin], the “resistance of Staphylococcus aureus” value in the series with Staphylococcus aureus is listed as “S”.
Turning to `CCn1cc(C(=O)O)c(=O)c2cc(F)c(N3CCNCC3)cc21` [NOR, norfloxacin], the “resistance of Pseudomona aeruginosa” value with Pseudomona aeruginosa was “S”.
As for trimethoprim-sulfamethoxazole [SXT], the “resistance of Klebsiella pneumoniae” value in the series with Klebsiella pneumoniae [1] is “R”. The “resistance of Escherichia coli” value with Escherichia coli was “R”. Moreover, the “resistance of Staphylococcus aureus” value in the series on Staphylococcus aureus is listed as “S”. The “drug resistant spectrum” value in the series with Klebsiella pneumoniae [2] is “R”.
Consider sulperazon [CLS], for which the “resistance of Pseudomona aeruginosa” value in the series on Pseudomona aeruginosa was “S”.
Turning to `C[C@H]1COc2c(N3CCN(C)CC3)c(F)cc3c(=O)c(C(=O)O)cn1c23` [LEV, left-handed oxygen fluorine], the “resistance of Pseudomona aeruginosa” value in the series on Pseudomona aeruginosa is given as “S”.
With amoxicillin/clavulanic acid [AMC], the “resistance of Klebsiella pneumoniae” value in the series with Klebsiella pneumoniae [1] is given as “S”. In the series with Escherichia coli, the “resistance of Escherichia coli” value was “I”. Moreover, the “drug resistant spectrum” value in the series on Klebsiella pneumoniae [2] was “I”.
`CCN1CCN(C(=O)N[C@@H](C(=O)N[C@@H]2C(=O)N3C(C(=O)O)=C(CSc4nnnn4C)CS[C@H]23)c2ccc(O)cc2)C(=O)C1=O` [CFP, cefoperazone]: the “resistance of Pseudomona aeruginosa” value in the series with Pseudomona aeruginosa is listed as “S”.
With `O=C(N[C@H](CO)[C@H](O)c1ccc([N+](=O)[O-])cc1)C(Cl)Cl` [CHL, chloramphenicol], the “resistance of Klebsiella pneumoniae” value in the series on Klebsiella pneumoniae [1] is listed as “I”. Also, the “resistance of Escherichia coli” value in the series on Escherichia coli is “S”. Moreover, the “drug resistant spectrum” value in the series with Klebsiella pneumoniae [2] is “R”.
Regarding `CCN1CCN(C(=O)N[C@@H](C(=O)N[C@@H]2C(=O)N3[C@@H]2SC(C)(C)[C@@H]3C(=O)O)c2ccccc2)C(=O)C1=O` [PIP, piperacillin], the “resistance of Klebsiella pneumoniae” value with Klebsiella pneumoniae [1] was “I”. Also, the “resistance of Escherichia coli” value in the series on Escherichia coli is reported as “R”. Moreover, the “resistance of Pseudomona aeruginosa” value in the series on Pseudomona aeruginosa is “S”. The “drug resistant spectrum” value with Klebsiella pneumoniae [2] is “R”.
Consider `C[C@H]1[C@H](NC(=O)/C(=N\OC(C)(C)C(=O)O)c2csc(N)n2)C(=O)N1S(=O)(=O)O` [ATM, aztreonam], for which the “resistance of Pseudomona aeruginosa” value in the series with Pseudomona aeruginosa is “S”.
With piperacillin/tazobactam [TZP], in the series on Klebsiella pneumoniae [1], the “resistance of Klebsiella pneumoniae” value is given as “S”. Moreover, the “resistance of Escherichia coli” value with Escherichia coli is reported as “I”. Also, the “resistance of Pseudomona aeruginosa” value in the series on Pseudomona aeruginosa is “S”. In addition, in the series with Klebsiella pneumoniae [2], the “drug resistant spectrum” value was “I”.
Regarding ampicillin/sulbactam [SAM], the “resistance of Pseudomona aeruginosa” value with Pseudomona aeruginosa is “R”. Also, the “resistance of Staphylococcus aureus” value with Staphylococcus aureus is listed as “S”.
For the molecule `NC[C@H]1O[C@H](O[C@H]2[C@H](O)[C@@H](O[C@H]3O[C@H](CO)[C@@H](O)[C@H](N)[C@H]3O)[C@H](N)C[C@@H]2N)[C@H](N)C[C@@H]1O` [TOB, tobramycin], the “resistance of Pseudomona aeruginosa” value in the series on Pseudomona aeruginosa is recorded as “S”.
For the molecule gentamicin, the “resistance of Klebsiella pneumoniae” value in the series on Klebsiella pneumoniae [1] is “S”. In addition, in the series on Escherichia coli, the “resistance of Escherichia coli” value is “R”. In addition, the “resistance of Pseudomona aeruginosa” value in the series on Pseudomona aeruginosa is “S”. Also, in the series with Staphylococcus aureus, the “resistance of Staphylococcus aureus” value is “S”. Moreover, the “drug resistant spectrum” value in the series on Klebsiella pneumoniae [2] is given as “R”.
Turning to `Cc1nnc(SCC2=C(C(=O)O)N3C(=O)[C@@H](NC(=O)Cn4cnnn4)[C@H]3SC2)s1` [CZO, cefazolin], the “resistance of Klebsiella pneumoniae” value in the series with Klebsiella pneumoniae [1] is recorded as “S”. For the same molecule, the “resistance of Escherichia coli” value in the series with Escherichia coli was “R”. The “drug resistant spectrum” value in the series on Klebsiella pneumoniae [2] is on record as “R”.
As for `NCC[C@H](O)C(=O)N[C@@H]1C[C@H](N)[C@@H](O[C@H]2O[C@H](CN)[C@@H](O)[C@H](O)[C@H]2O)[C@H](O)[C@H]1O[C@H]1O[C@H](CO)[C@@H](O)[C@H](N)[C@H]1O` [AMK, amikacin], the “resistance of Klebsiella pneumoniae” value in the series on Klebsiella pneumoniae [1] is recorded as “S”. Also, the “resistance of Escherichia coli” value in the series with Escherichia coli was “S”. Also, the “resistance of Pseudomona aeruginosa” value in the series on Pseudomona aeruginosa is recorded as “S”. Besides, the “resistance of Staphylococcus aureus” value in the series on Staphylococcus aureus is listed as “S”. In addition, the “drug resistant spectrum” value with Klebsiella pneumoniae [2] was “S”.
Consider `Cc1onc(-c2ccccc2)c1C(=O)N[C@@H]1C(=O)N2[C@@H]1SC(C)(C)[C@@H]2C(=O)O` [OXA, oxacillin], for which, in the series with Staphylococcus aureus, the “resistance of Staphylococcus aureus” value is reported as “S”.
As to ticarcillin/clavulanic acid [TIM], the “resistance of Pseudomona aeruginosa” value with Pseudomona aeruginosa is reported as “S”.
Regarding `CO/N=C(\C(=O)N[C@@H]1C(=O)N2C(C(=O)O)=C(COC(N)=O)CS[C@H]12)c1ccco1` [CXM, cefuroxime], in the series on Klebsiella pneumoniae [1], the “resistance of Klebsiella pneumoniae” value is listed as “S”. Also, in the series on Escherichia coli, the “resistance of Escherichia coli” value was “R”. In addition, the “resistance of Pseudomona aeruginosa” value in the series with Pseudomona aeruginosa is listed as “R”. For the same molecule, the “drug resistant spectrum” value with Klebsiella pneumoniae [2] is given as “R”.
Take `CO[C@@]1(NC(=O)Cc2cccs2)C(=O)N2C(C(=O)O)=C(COC(N)=O)CS[C@@H]21` [FOX, cefoxitin]: the “resistance of Klebsiella pneumoniae” value in the series on Klebsiella pneumoniae [1] is on record as “S”. Moreover, the “resistance of Escherichia coli” value with Escherichia coli is given as “R”. Further, in the series with Staphylococcus aureus, the “resistance of Staphylococcus aureus” value is reported as “S”. Besides, the “drug resistant spectrum” value in the series on Klebsiella pneumoniae [2] is “S”.
Take `CC(C)(O/N=C(\C(=O)N[C@@H]1C(=O)N2C(C(=O)[O-])=C(C[n+]3ccccc3)CS[C@H]12)c1csc(N)n1)C(=O)O` [CAZ, ceftazidime]: in the series with Klebsiella pneumoniae [1], the “resistance of Klebsiella pneumoniae” value is “S”. Moreover, the “resistance of Escherichia coli” value in the series with Escherichia coli is recorded as “R”. The “resistance of Pseudomona aeruginosa” value in the series on Pseudomona aeruginosa is given as “S”. In addition, the “drug resistant spectrum” value in the series on Klebsiella pneumoniae [2] is reported as “S”.
On to `CO/N=C(\C(=O)N[C@@H]1C(=O)N2C(C(=O)[O-])=C(C[N+]3(C)CCCC3)CS[C@H]12)c1csc(N)n1` [FEP, cefepime], for which, in the series on Klebsiella pneumoniae [1], the “resistance of Klebsiella pneumoniae” value was “S”. In addition, the “resistance of Escherichia coli” value in the series on Escherichia coli is listed as “R”. In the series on Pseudomona aeruginosa, the “resistance of Pseudomona aeruginosa” value is “S”. The “drug resistant spectrum” value in the series with Klebsiella pneumoniae [2] is “S”.
Turning to `CO/N=C(\C(=O)N[C@@H]1C(=O)N2C(C(=O)O)=C(COC(C)=O)CS[C@H]12)c1csc(N)n1` [CTX, cefotaxime], the “resistance of Klebsiella pneumoniae” value with Klebsiella pneumoniae [1] is listed as “S”. The “resistance of Escherichia coli” value in the series on Escherichia coli is given as “R”. The “resistance of Pseudomona aeruginosa” value in the series on Pseudomona aeruginosa is recorded as “S”. Besides, the “drug resistant spectrum” value with Klebsiella pneumoniae [2] is “R”.
